Data set [1] has as its system Staphylococcus aureus. Briefly: Antibacterial activity against methicillin-resistant Staphylococcus aureus Bio-090770 after 16 to 18 hrs by broth microdilution method. It counts as functional. Conditions: time 16-18 hrs.
The subject of data set [2] is Acinetobacter baumannii. Nature of the data set: Antibacterial activity against drug-resistant Acinetobacter baumannii Bio 53272 after 16 to 18 hrs by broth microdilution method. The class given is functional. Conditions: time 16-18 hrs. A general note: Broth dilution looks for growth in wells or tubes with falling amounts of substance.
The next data set deals with Klebsiella pneumoniae. Nature of the data set: Antibacterial activity against Klebsiella pneumoniae CICC 21611 after 16 to 18 hrs by broth microdilution method. It counts as functional. Conditions: time 16-18 hrs.
For data set [3], the system named is Staphylococcus aureus. Briefly: Antibacterial activity against methicillin-resistant Staphylococcus aureus ATCC 33591 after 16 to 18 hrs by broth microdilution method. It counts as functional. Conditions: time 16-18 hrs.
The subject of data set [4] is Staphylococcus aureus. Nature of the data set: Antibacterial activity against methicillin-susceptible Staphylococcus aureus ATCC 29213 after 16 to 18 hrs by broth microdilution method. Conditions: time 16-18 hrs. The class given is functional.
For data set [5], the system named is Staphylococcus aureus. Briefly: Antibacterial activity against methicillin-susceptible Staphylococcus aureus ATCC 13709 after 16 to 18 hrs by broth microdilution method. The class given is functional. Conditions: time 16-18 hrs.
Data set [6] concerns Staphylococcus aureus. Nature of the data set: Antibacterial activity against methicillin-susceptible Staphylococcus aureus ATCC 25923 after 16 to 18 hrs by broth microdilution method. The class given is functional. Conditions: time 16-18 hrs.
Data set [7] concerns Acinetobacter baumannii. Briefly: Antibacterial activity against Acinetobacter baumannii Bio 34235 after 16 to 18 hrs by broth microdilution method. The class given is functional. Conditions: time 16-18 hrs.
Data set [8] is described as follows: Methemoglobin toxicity in human blood at 500 uM incubated for 6 hrs by MetHb content assay. The class given is tissue-based.
In data set [9] the test system is Staphylococcus epidermidis. Briefly: Antibacterial activity against Staphylococcus epidermidis after 16 to 18 hrs by broth microdilution method. It counts as functional. The following applies: time 16-18 hrs.
For another data set, the system named is Escherichia coli. Nature of the data set: Antibacterial activity against Escherichia coli ATCC 25922 after 16 to 18 hrs by broth microdilution method. Conditions: time 16-18 hrs. The class given is functional.
The subject of data set [10] is Staphylococcus aureus. Briefly: Antibacterial activity against methicillin-resistant Staphylococcus aureus ATCC 43300 after 16 to 18 hrs by broth microdilution method. It counts as functional. Conditions: time 16-18 hrs.
Data set [11] is described as follows: Cytotoxicity against human HEK293T cells assessed as cell viability at 3.125 to 100 uM incubated for 24 hrs by MTT assay. It counts as toxicity, cell-based, HEK-293T. For orientation: Tetrazolium dyes change colour on reduction, which living cells bring about.
Data set [12] can be described thus: Cytotoxicity against human HeLa cells assessed as cell viability at 3.125 to 100 uM incubated for 24 hrs by MTT assay. It counts as toxicity, cell-based.

Each structure is given as a SMILES string. Values after ≈ are worked out from the molar mass of the structure shown.

With `CCCC[C@H](CN(O)C=O)C(=O)N1CCC[C@H]1c1nnc(-c2nccs2)s1`, the minimal inhibitory concentration (MIC) was 1 mg/L (≈ 2.44 µM) in the data set with Staphylococcus aureus [1]; 8 mg/L (≈ 19.5 µM) against Acinetobacter baumannii [2]; more than 16 mg/L against Klebsiella pneumoniae; 0.25 mg/L (≈ 0.61 µM) in the data set with Staphylococcus aureus [3]; 2 mg/L (≈ 4.88 µM) against Staphylococcus aureus [4]; 0.5 mg/L (≈ 1.22 µM) in the data set with Staphylococcus aureus [5]. For the same molecule, the MIC is 1 mg/L (≈ 2.44 µM) in the data set on Staphylococcus aureus [6]; 16 mg/L (≈ 39.1 µM) in the data set on Acinetobacter baumannii [7]; 0.25 mg/L (≈ 0.61 µM) in data set [9]; more than 16 mg/L in the data set on Escherichia coli; 0.25 mg/L (≈ 0.61 µM) against Staphylococcus aureus [10]. Further, the Activity entry in data set [8] was “Toxic”.

With `Nc1ccc(S(=O)(=O)c2ccc(N)cc2)cc1` [DAPSONE], the Activity entry in [8] is given as “Toxic”.

Consider `CCCC[C@H](CN(O)C=O)C(=O)N1CCC[C@H]1c1nnc(-c2ccc(Cl)s2)s1`, for which the minimum inhibitory concentration (MIC) is 1 mg/L (≈ 2.26 µM) in the data set with Staphylococcus aureus [1]; 16 mg/L (≈ 36.1 µM) against Acinetobacter baumannii [2]; 32 mg/L (≈ 72.2 µM) against Klebsiella pneumoniae; 0.25 mg/L (≈ 0.564 µM) against Staphylococcus aureus [3]; 1 mg/L (≈ 2.26 µM) against Staphylococcus aureus [4]; 1 mg/L (≈ 2.26 µM) with Staphylococcus aureus [5]. The MIC against Staphylococcus aureus [6] was found to be 1 mg/L (≈ 2.26 µM); against Acinetobacter baumannii [7], 32 mg/L (≈ 72.2 µM); in data set [9], 0.5 mg/L (≈ 1.13 µM); in the data set with Escherichia coli, 32 mg/L (≈ 72.2 µM); in the data set on Staphylococcus aureus [10], 0.25 mg/L (≈ 0.564 µM). The IC50 at 24 h in [11] and in [12] was more than 100 µM each time. For the same molecule, the Activity entry in [8] was “Toxic”.

For the molecule `CCCC[C@H](CN(O)C=O)C(=O)N1CCC[C@H]1c1nnc(-c2ccc(F)cc2C(F)(F)F)s1`, the minimum inhibitory concentration (MIC) in the data set on Staphylococcus aureus [1] was 4 mg/L (≈ 8.19 µM); in the data set with Acinetobacter baumannii [2] it was more than 16 mg/L; with Klebsiella pneumoniae it was more than 16 mg/L; with Staphylococcus aureus [3] it was 0.5 mg/L (≈ 1.02 µM); in the data set with Staphylococcus aureus [4], 2 mg/L (≈ 4.09 µM); against Staphylococcus aureus [5] it was 2 mg/L (≈ 4.09 µM). Moreover, the MIC in the data set with Staphylococcus aureus [6] is 2 mg/L (≈ 4.09 µM); in the data set with Acinetobacter baumannii [7], more than 16 mg/L; in [9] it was 4 mg/L (≈ 8.19 µM); in the data set with Escherichia coli, more than 16 mg/L; in the data set on Staphylococcus aureus [10], 2 mg/L (≈ 4.09 µM).

On to `CCCC[C@H](CN(O)C=O)C(=O)N1CCC[C@H]1c1nnc(-c2sccc2C)s1`, for which the MIC stood at 0.5 mg/L (≈ 1.18 µM) in the data set with Staphylococcus aureus [1]; 16 mg/L (≈ 37.9 µM) with Acinetobacter baumannii [2]; 16 mg/L (≈ 37.9 µM) against Klebsiella pneumoniae; 0.25 mg/L (≈ 0.592 µM) against Staphylococcus aureus [3]; 0.5 mg/L (≈ 1.18 µM) in the data set on Staphylococcus aureus [4]; 0.5 mg/L (≈ 1.18 µM) with Staphylococcus aureus [5]. Moreover, the MIC against Staphylococcus aureus [6] stood at 0.5 mg/L (≈ 1.18 µM); against Acinetobacter baumannii [7], 32 mg/L (≈ 75.7 µM); in data set [9], 0.5 mg/L (≈ 1.18 µM); against Escherichia coli, 64 mg/L (≈ 151 µM); in the data set with Staphylococcus aureus [10], 0.25 mg/L (≈ 0.592 µM).

With `CCCC[C@H](CN(O)C=O)C(=O)N1CCC[C@H]1c1nnc(-c2ccc(-c3ccccc3)cc2)s1`, the minimal inhibitory concentration (MIC) against Staphylococcus aureus [1] is 2 mg/L (≈ 4.18 µM); against Acinetobacter baumannii [2], more than 16 mg/L; against Klebsiella pneumoniae, more than 16 mg/L; with Staphylococcus aureus [3], 1 mg/L (≈ 2.09 µM); with Staphylococcus aureus [4], 2 mg/L (≈ 4.18 µM); in the data set with Staphylococcus aureus [5], 2 mg/L (≈ 4.18 µM). Also, the MIC was 2 mg/L (≈ 4.18 µM) in the data set with Staphylococcus aureus [6]; more than 16 mg/L with Acinetobacter baumannii [7]; more than 16 mg/L in data set [9]; more than 16 mg/L in the data set on Escherichia coli; 1 mg/L (≈ 2.09 µM) with Staphylococcus aureus [10].

In the case of `CCCC[C@H](CN(O)C=O)C(=O)N1CCC[C@H]1c1nnc(-c2cscn2)s1`, the minimum inhibitory concentration (MIC) against Staphylococcus aureus [1] stood at 2 mg/L (≈ 4.88 µM); with Acinetobacter baumannii [2] it was 16 mg/L (≈ 39.1 µM); in the data set with Klebsiella pneumoniae, 32 mg/L (≈ 78.1 µM); in the data set with Staphylococcus aureus [3] it was 0.5 mg/L (≈ 1.22 µM); in the data set with Staphylococcus aureus [4], 1 mg/L (≈ 2.44 µM); in the data set on Staphylococcus aureus [5], 1 mg/L (≈ 2.44 µM). The MIC against Staphylococcus aureus [6] amounted to 1 mg/L (≈ 2.44 µM); against Acinetobacter baumannii [7] it was 64 mg/L (≈ 156 µM); in data set [9], 0.25 mg/L (≈ 0.61 µM); in the data set with Escherichia coli, 64 mg/L (≈ 156 µM); against Staphylococcus aureus [10], 0.5 mg/L (≈ 1.22 µM).

Take `CCCC[C@H](CN(O)C=O)C(=O)N1CCC[C@H]1c1nnc(-c2sccc2F)s1`: the minimum inhibitory concentration (MIC) against Staphylococcus aureus [1] amounted to 2 mg/L (≈ 4.69 µM); against Acinetobacter baumannii [2], 16 mg/L (≈ 37.5 µM); against Klebsiella pneumoniae, 16 mg/L (≈ 37.5 µM); against Staphylococcus aureus [3], 0.5 mg/L (≈ 1.17 µM); with Staphylococcus aureus [4], 0.5 mg/L (≈ 1.17 µM); against Staphylococcus aureus [5], 0.5 mg/L (≈ 1.17 µM). The MIC against Staphylococcus aureus [6] worked out at 0.5 mg/L (≈ 1.17 µM); with Acinetobacter baumannii [7], 16 mg/L (≈ 37.5 µM); in data set [9] it was 1 mg/L (≈ 2.34 µM); in the data set on Escherichia coli, 64 mg/L (≈ 150 µM); in the data set with Staphylococcus aureus [10], 0.5 mg/L (≈ 1.17 µM).

Broadly, the MIC is the least concentration at which growth counts as inhibited. The IC50 is the concentration that gives 50% inhibition.

These data come from ChEMBL document CHEMBL6121016, “Design, Synthesis, and Biological Evaluation of 1,3,4-Thiadiazole Derivatives as Novel Potent Peptide Deformylase Inhibitors for Combating Drug-Resistant Gram-Positive and -Negative Bacteria” (J Med Chem, 2025).
